Test results from US7427608B2, “Protection against and treatment of hearing loss” (The Research Foundation of State University of New York, priority 2001, dated 2008).
Like-named read-outs stand apart in the source and are kept apart here.

Experiments:
[1] = target: full length human purified recombinant pp60^c-src (Homo sapiens, UniProt P12931); test: Inhibition of isolated Src (Lai et al. 1998 assay, intracellular-mimetic conditions); type: biochemical
[2] = test system: human lung cancer cell line H460; test: Inhibition of growth of human lung cancer cell line H460; type: cell-based; conditions: NCI-H460, 72 hours, total protein/well
Text: The results are in Table 2, below.

[3] = mouse, in vivo, ip
[4] = target: Epidermal Growth Factor Receptor Tyrosine Kinase (EGFRTK) (Homo sapiens, UniProt P00533); test: Inhibition of EGFRTK; type: biochemical; conditions: compound at 10 micromolar
Text: (§1) Blanks for a particular enzyme indicate that inhibition was not found.

[5] = target: p55 fyn (Homo sapiens, UniProt P06241); test: Inhibition of p55 fyn; type: biochemical; conditions: compound at 10 micromolar
Text: as §1

[6] = target: T1, protein tyrosine phosphatase 1B (PTP-1B) (Homo sapiens, UniProt P18031); test: Inhibition of PTP-1B; type: biochemical; conditions: compound at 10 micromolar
T1 sequence (P18031 1-435): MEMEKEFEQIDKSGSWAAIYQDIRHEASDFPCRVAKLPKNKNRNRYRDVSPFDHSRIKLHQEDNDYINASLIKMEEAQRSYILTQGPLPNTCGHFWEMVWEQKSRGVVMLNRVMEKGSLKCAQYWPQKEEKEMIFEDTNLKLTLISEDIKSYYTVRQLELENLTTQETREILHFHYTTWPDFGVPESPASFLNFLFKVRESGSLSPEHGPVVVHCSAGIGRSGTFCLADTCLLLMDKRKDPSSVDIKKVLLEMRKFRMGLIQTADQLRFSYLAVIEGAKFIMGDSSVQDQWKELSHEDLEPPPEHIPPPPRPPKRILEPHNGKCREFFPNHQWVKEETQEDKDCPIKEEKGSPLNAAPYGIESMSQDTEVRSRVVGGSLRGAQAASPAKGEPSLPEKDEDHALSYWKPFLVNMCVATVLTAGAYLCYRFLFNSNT
Text: as §1

[7] = target: p56 lck (Homo sapiens, UniProt P06239); test: Inhibition of p56 lck; type: biochemical; conditions: compound at 10 micromolar
Text: as §1

[8] = test system: ovarian tumor cells (tumor N015) and abdominal carcinoma from patients; test: Patient tumor cell culture, comparison with cancer drugs; type: cell-based, human
Text: The initial non-peptide Src inhibitors have also shown very encouraging results in four different series of cell culture assays. 1) In the NIH 60-tumor cell panel assay, broad activity (as one would expect for a Src inhibitor) was seen against the tumor cell lines, including the prostate lines. […] 3) The Src inhibitors were compared to the cancer drugs etoposide, taxol, doxorubicin, and cisplatin in ovarian tumors from three different patients and an abdominal carcinoma from another patient. […] 5) Two of the Src inhibitors were also tested for inhibition of ts v-Src stimulated LA25 cell growth. […] 6) Two of the Src inhibitors were also tested for inhibition of normal rat kidney cell growth.

Sequence of Epidermal Growth Factor Receptor Tyrosine Kinase (EGFRTK) (P00533 25-1210): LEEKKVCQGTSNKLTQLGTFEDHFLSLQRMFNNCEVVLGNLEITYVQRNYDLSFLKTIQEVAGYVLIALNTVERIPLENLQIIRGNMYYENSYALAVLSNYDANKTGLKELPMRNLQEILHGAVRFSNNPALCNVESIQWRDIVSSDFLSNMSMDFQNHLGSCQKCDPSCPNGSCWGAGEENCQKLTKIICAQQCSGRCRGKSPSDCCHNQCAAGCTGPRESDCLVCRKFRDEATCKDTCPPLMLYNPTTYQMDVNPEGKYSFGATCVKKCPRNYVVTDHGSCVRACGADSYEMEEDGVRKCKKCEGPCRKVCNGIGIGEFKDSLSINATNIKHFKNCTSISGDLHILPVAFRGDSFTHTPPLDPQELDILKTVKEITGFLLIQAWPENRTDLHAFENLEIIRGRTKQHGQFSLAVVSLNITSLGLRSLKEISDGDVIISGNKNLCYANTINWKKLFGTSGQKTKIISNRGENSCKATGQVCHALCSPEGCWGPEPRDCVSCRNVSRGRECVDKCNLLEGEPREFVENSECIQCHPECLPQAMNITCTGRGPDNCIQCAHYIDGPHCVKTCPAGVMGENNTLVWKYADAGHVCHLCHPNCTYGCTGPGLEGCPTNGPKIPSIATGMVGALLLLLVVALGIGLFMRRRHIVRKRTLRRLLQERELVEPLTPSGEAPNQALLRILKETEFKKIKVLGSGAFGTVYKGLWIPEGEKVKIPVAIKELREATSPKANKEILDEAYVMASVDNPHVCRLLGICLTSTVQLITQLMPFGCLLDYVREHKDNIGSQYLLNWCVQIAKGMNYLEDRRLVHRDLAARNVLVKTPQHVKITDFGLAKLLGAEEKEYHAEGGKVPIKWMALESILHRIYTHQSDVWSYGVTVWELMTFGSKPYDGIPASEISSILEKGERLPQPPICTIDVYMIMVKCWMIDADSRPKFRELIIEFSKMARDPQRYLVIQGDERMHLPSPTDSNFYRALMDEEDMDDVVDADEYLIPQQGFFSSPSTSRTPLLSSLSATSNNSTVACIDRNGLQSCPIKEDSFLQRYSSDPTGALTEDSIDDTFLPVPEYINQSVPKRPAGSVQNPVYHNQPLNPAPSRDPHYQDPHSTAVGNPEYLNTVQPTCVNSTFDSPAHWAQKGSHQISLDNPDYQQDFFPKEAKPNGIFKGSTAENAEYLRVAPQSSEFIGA
Sequence of p55 fyn (P06241 whole entry): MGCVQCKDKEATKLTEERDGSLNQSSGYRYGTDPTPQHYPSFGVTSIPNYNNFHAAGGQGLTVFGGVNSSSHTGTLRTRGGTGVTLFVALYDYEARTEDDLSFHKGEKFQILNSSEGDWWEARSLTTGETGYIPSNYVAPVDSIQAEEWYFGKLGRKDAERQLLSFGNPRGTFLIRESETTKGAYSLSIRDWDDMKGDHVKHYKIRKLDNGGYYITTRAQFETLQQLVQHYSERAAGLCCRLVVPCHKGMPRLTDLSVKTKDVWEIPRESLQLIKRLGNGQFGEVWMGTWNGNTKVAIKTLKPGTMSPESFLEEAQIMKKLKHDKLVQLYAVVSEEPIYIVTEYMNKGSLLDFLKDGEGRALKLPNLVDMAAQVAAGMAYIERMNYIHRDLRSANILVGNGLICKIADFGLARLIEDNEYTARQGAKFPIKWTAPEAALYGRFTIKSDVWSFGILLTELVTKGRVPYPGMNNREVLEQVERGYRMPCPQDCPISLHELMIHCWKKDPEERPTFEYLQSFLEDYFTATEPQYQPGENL
Sequence of p56 lck (P06239 whole entry, species assumed): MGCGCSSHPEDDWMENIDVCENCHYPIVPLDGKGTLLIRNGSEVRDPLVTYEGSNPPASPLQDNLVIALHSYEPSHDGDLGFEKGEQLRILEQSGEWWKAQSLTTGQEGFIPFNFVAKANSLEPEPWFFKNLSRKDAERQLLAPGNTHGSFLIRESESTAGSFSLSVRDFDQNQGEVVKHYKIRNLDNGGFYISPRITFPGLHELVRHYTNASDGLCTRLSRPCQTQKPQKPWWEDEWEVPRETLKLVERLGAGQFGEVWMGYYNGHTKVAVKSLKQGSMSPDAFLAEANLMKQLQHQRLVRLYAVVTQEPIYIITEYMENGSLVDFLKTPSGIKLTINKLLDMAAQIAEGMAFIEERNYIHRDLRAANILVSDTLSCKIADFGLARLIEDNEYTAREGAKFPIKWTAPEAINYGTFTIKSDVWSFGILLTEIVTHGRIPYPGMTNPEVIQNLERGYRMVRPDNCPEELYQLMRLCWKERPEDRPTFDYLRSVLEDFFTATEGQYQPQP
Sequence of full length human purified recombinant pp60^c-src (P12931 whole entry): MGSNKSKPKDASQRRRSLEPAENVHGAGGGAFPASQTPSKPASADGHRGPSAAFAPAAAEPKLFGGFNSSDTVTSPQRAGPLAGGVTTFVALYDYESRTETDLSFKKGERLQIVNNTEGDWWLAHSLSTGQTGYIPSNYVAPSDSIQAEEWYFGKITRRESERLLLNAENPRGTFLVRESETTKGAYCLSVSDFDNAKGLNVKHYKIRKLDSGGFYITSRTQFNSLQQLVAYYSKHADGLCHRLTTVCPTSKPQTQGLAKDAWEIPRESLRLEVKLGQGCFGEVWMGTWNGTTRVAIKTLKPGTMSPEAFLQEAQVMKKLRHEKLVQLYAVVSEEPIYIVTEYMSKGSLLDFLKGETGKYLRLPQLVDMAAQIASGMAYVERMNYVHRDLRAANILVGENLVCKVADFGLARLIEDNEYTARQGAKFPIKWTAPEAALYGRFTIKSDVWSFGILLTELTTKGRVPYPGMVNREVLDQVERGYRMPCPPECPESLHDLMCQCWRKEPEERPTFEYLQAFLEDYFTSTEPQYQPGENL

Structure (SMILES) | inhibition at 10 µM [4] | inhibition at 10 µM [5] | also measured
O=C(NCc1cccc(O)c1)c1cc2cc(F)ccc2[nH]1 [Compound 1a] | – | – | IC50 ([1]; column head: Src at 100 μM, read-out: Src IC50): 40 µM; IC50 [2]: 35 ± 0.59 µM; toxicity in mice (weight loss), MTD study [3]: less toxic in mice than compound 2k from Example 4
COc1cccc([C@H](C)NC(=O)c2cc3cc(F)ccc3[nH]2)c1 [Compound 1aa] | 12% | 10% | –
O=C(NCc1cc(C(F)(F)F)ccc1F)c1cc2cc(F)ccc2[nH]1 [Compound 1aaa] | – | – | inhibition at 10 µM [6]: 12%
O=C(NCc1ccccc1)c1cc2cc(F)ccc2[nH]1 [Compound 1bb] | 19% | – | IC50 [2]: 82 ± 3.5 µM
O=C(NCc1ccccc1F)c1cc2cc(F)ccc2[nH]1 [Compound 1bbb] | – | – | IC50 [2]: > 100 µM
O=C(N[C@H](c1ccccc1)[C@H](O)c1ccccc1)c1cc2cc(F)ccc2[nH]1 [Compound 1cc] | 19% | – | IC50 [2]: 30 ± 0.66 µM
COc1ccc(NC(=O)c2cc3cc(F)ccc3[nH]2)cc1CO [Compound 1cccc] | 19% | – | IC50 [2]: > 100 µM; inhibition at 10 µM [6]: 20%
O=C(N[C@@H](c1ccccc1)[C@@H](O)c1ccccc1)c1cc2cc(F)ccc2[nH]1 [Compound 1dd] | 41% | – | IC50 [2]: 33 ± 0.78 µM
O=C(NCc1cc(O)cc(OCc2ccccc2)c1)c1cc2cc(F)ccc2[nH]1 [Compound 1dddd] | – | – | inhibition at 10 µM [6]: 16%
COc1ccc(CNC(=O)c2cc3cc(F)ccc3[nH]2)cc1 [Compound 1ee] | 16% | – | –
O=C(NCc1cccc(I)c1)c1cc2cc(F)ccc2[nH]1 [Compound 1ff] | 24% | – | –
Cc1ccccc1CNC(=O)c1cc2cc(F)ccc2[nH]1 [Compound 1ffff] | 12% | – | –
CCCN(CCC)C(=O)c1cc2cc(F)ccc2[nH]1 [Compound 1g] | – | 19% | –
O=C(NCc1ccc(O)c(O)c1)c1cc2cc(F)ccc2[nH]1 [Compound 1gggg] | 25% | – | –
COc1cc(CNC(=O)c2cc3cc(F)ccc3[nH]2)cc(OC)c1 [Compound 1hhhh] | – | – | inhibition at 10 µM [6]: 17%
O=C(NCc1cc(OCc2ccccc2)cc(OCc2ccccc2)c1)c1cc2cc(F)ccc2[nH]1 [Compound 1iiii] | 12% | – | –
O=C(NCc1cccc(C(F)(F)F)c1)c1cc2cc(F)ccc2[nH]1 [Compound 1jj] | – | 18% | –
O=C(NCc1ccc(OCc2ccccc2)c(O)c1)c1cc2cc(F)ccc2[nH]1 [Compound 1jjjj] | – | – | inhibition at 10 µM [6]: 15%
O=C(Nc1ccc(Oc2ccccc2)cc1)c1cc2cc(F)ccc2[nH]1 [Compound 1k] | – | 13% | –
O=C(NCc1ccc(Br)cc1)c1cc2cc(F)ccc2[nH]1 [Compound 1kkkk] | 30% | – | –
O=C(NCc1cc(F)cc(C(F)(F)F)c1)c1cc2cc(F)ccc2[nH]1 [Compound 1mmm] | – | 14% | –
O=C(NCc1ccc([N+](=O)[O-])cc1)c1cc2cc(F)ccc2[nH]1 [Compound 1mmmm] | – | 29% | –
O=C(Nc1ccccc1O)c1cc2cc(F)ccc2[nH]1 [Compound 1n] | – | – | inhibition at 10 µM [7]: 12%
CCCOc1ccc(CNC(=O)c2cc3cc(F)ccc3[nH]2)cc1O [Compound 1nnnn] | 17% | 11% | –
O=C(Nc1ccc(CO)cc1)c1cc2cc(F)ccc2[nH]1 [Compound 1oo] | – | 17% | –

Structure (SMILES) | inhibition at 10 µM [4] | inhibition at 10 µM [5] | also measured
O=C(NCc1ccc(CO)cc1)c1cc2cc(F)ccc2[nH]1 [Compound 1oooo] | 33% | – | inhibition at 10 µM [7]: 10%; IC50 [2]: 74 ± 2.7 µM
COc1cc(CNC(=O)c2cc3cc(F)ccc3[nH]2)ccc1OCc1ccccc1 [Compound 1qqq] | – | 11% | –
O=C(NCCCCCCO)c1cc2cc(F)ccc2[nH]1 [Compound 1qqqq] | 18% | – | –
O=C(Nc1cc(O)cc(O)c1)c1cc2cc(F)ccc2[nH]1 [Compound 1r] | – | – | inhibition at 10 µM [7]: 11%
COc1cc(OC)c(CNC(=O)c2cc3cc(F)ccc3[nH]2)c(OC)c1 [Compound 1rr] | – | – | inhibition at 10 µM [7]: 12%
O=C(NCc1ccc(Cl)cc1)c1cc2cc(F)ccc2[nH]1 [Compound 1rrr] | – | 15% | –
O=C(NCc1ccc(Cl)cc1Cl)c1cc2cc(F)ccc2[nH]1 [Compound 1ss] | – | – | inhibition at 10 µM [6]: 12%
Cc1cc(C)cc(NC(=O)c2cc3cc(F)ccc3[nH]2)c1 [Compound 1t] | – | 11% | –
O=C(NCCc1c[nH]c2ccccc12)c1cc2cc(F)ccc2[nH]1 [Compound 1u] | – | 10% | –
O=C(NCc1ccc(F)cc1)c1cc2cc(F)ccc2[nH]1 [Compound 1uuu] | – | 16% | inhibition at 10 µM [6]: 13%
O=C(c1cc2cc(F)ccc2[nH]1)N1CCOCC1 [Compound 1w] | – | 10% | –
Cc1cccc(Cl)c1CNC(=O)c1cc2cc(F)ccc2[nH]1 [Compound 1xx] | – | 14% | –
O=C(Nc1ccccc1CO)c1cc2cc(F)ccc2[nH]1 [Compound 1xxx] | – | – | inhibition at 10 µM [6]: 12%
O=C(NCc1ccccc1Cl)c1cc2cc(F)ccc2[nH]1 [Compound 1yy] | – | 12% | inhibition at 10 µM [6]: 10%
O=C(Nc1cccc(CO)c1)c1cc2cc(F)ccc2[nH]1 [Compound 1yyy] | 11% | – | IC50 [2]: 104 ± 10 µM
O=C(NCc1cccc(F)c1)c1cc2cc(F)ccc2[nH]1 [Compound 1z] | 26% | – | IC50 [2]: 15 ± 1.6 µM
O=C(Nc1cccc(O)c1)c1cc2ccc(O)cc2cc1O [Compound 2f] | – | – | IC50 ([1]; Example 3 hydroxynaphthalene series, 200 μM ATP, read-out: IC50): 16 µM
O=C(NCc1cccc(F)c1)c1[nH]c2ccc(F)cc2c1-c1ccccc1 [Compound 2g] | – | – | IC50 [2]: 13 ± 0.56 µM
O=C(NCc1ccc(Cl)cc1)c1[nH]c2ccc(F)cc2c1-c1ccccc1 [Compound 2gg] | – | – | inhibition at 10 µM [6]: 12%
O=C(NCc1cc(C(F)(F)F)cc(C(F)(F)F)c1)c1[nH]c2ccc(F)cc2c1-c1ccccc1 [Compound 2w] | – | – | inhibition at 10 µM [6]: 12%
O=C(NCc1cccc(O)c1)c1[nH]c2ccc(F)cc2c1-c1ccccc1 [Compound 3q] | – | – | IC50 [2]: 30 ± 0.34 µM
N=c1oc2c(O)cccc2cc1C(=O)Nc1cccc(O)c1 [Iminochromene 9TA, iminochromene 9TA, reference compound] | – | – | % Inhibition at 100 μM (std. dev.) ([1]; Example 3 hydroxynaphthalene series and published inhibitors, 100 μM inhibitor, 198 μM ATP): 30 (+/−15) %
COc1cccc2c1C(=O)c1c(O)c3c(c(O)c1C2=O)C[C@@](O)(C(=O)CO)C[C@@H]3O[C@H]1C[C@H](N)[C@H](O)[C@H](C)O1 [doxorubicin] | – | – | efficacy relative to other cancer drugs in tumor cell culture [8]: more effective than etoposide and cisplatin
CC(=O)O[C@H]1C(=O)[C@@]2(C)[C@H]([C@H](OC(=O)c3ccccc3)[C@]3(O)C[C@H](OC(=O)[C@H](O)[C@@H](NC(=O)c4ccccc4)c4ccccc4)C(C)=C1C3(C)C)[C@]1(OC(C)=O)CO[C@@H]1C[C@@H]2O [taxol] | – | – | efficacy relative to other cancer drugs in tumor cell culture [8]: more effective than etoposide and cisplatin

Further lines, with some results ahead:

inhibition at 10 µM [4] | inhibition at 10 µM [5] | Structure (SMILES) | also measured
19% | 13% | O=C(NCC1(O)CCCCC1)c1[nH]c2ccc(F)cc2c1-c1ccccc1 [Compound 2b] | –
23% | – | CCCOc1ccc(NC(=O)c2[nH]c3ccc(F)cc3c2-c2ccccc2)cc1CO [Compound 2d] | –
10% | – | O=C(Nc1ccc(OCc2ccccc2)c(CO)c1)c1[nH]c2ccc(F)cc2c1-c1ccccc1 [Compound 2e] | –
18% | 11% | COc1ccc(NC(=O)c2[nH]c3ccc(F)cc3c2-c2ccccc2)cc1CO [Compound 2f] | IC50 [2]: 13 ± 0.46 µM
12% | – | O=C(NCc1ccc(F)cc1C(F)(F)F)c1[nH]c2ccc(F)cc2c1-c1ccccc1 [Compound 2hh] | –
20% | – | O=C(NCc1ccc(C(F)(F)F)cc1)c1[nH]c2ccc(F)cc2c1-c1ccccc1 [Compound 2j] | –
– | 24% | O=C(NCc1ccc([N+](=O)[O-])cc1)c1[nH]c2ccc(F)cc2c1-c1ccccc1 [Compound 2kk] | –
10% | – | O=C(NCc1cc(Br)ccc1F)c1[nH]c2ccc(F)cc2c1-c1ccccc1 [Compound 2ll] | –
– | 12% | O=C(NCc1ccc(F)cc1Cl)c1[nH]c2ccc(F)cc2c1-c1ccccc1 [Compound 2o] | –
33% | 11% | O=C(NCc1ccccc1F)c1[nH]c2ccc(F)cc2c1-c1ccccc1 [Compound 2s] | inhibition at 10 µM [7]: 10%; IC50 [2]: 26 ± 0.34 µM
20% | – | O=C(NCc1cc(F)cc(F)c1)c1[nH]c2ccc(F)cc2c1-c1ccccc1 [Compound 2y] | –
